For orientation: Ki means a measure of affinity in units of concentration, obtained from inhibition or displacement.

The experiment addresses T1, CCR1 (Homo sapiens, UniProt P32246).
T1 construct: the THP-1 cell line, which expresses the endogenous CCR1 receptor; endogenous in cells; host or cells: THP-1 (human monocytic cell line); human PBMC or human monocytes are named as alternatives
T1 sequence (P32246 1-355): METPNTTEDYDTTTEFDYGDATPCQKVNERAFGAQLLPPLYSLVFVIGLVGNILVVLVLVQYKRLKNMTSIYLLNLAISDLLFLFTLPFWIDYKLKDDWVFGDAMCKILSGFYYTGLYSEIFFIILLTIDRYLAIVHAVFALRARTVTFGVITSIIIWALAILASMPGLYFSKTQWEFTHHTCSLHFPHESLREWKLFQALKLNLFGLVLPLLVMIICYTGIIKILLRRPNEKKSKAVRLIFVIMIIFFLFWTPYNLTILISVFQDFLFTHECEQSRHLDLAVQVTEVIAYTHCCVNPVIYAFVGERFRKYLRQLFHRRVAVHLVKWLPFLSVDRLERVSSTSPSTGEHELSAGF
The experiment in a line: Antagonism of 125I-MIP-1α binding to human THP-1 cells (CCR1 binding). The note with it: THP-1 cells expressing endogenous CCR1; 50 pM 125I-labeled human MIP-1α; room temperature, thirty minutes; read-out: CCR1 Binding Ki (n = 1 unless otherwise noted). The protocol: Antagonism of MIP-1α Binding to Human THP-1 Cells
Compounds of the present invention have activity in the antagonism of MIP-1α binding to human THP-1 cells described here.
Millipore filter plates (#MABVN1250) are treated with 100 μl of binding buffer (0.5% bovine serum albumin, 20 mM HEPES buffer and 5 mM magnesium chloride in RPMI 1640 media) for thirty minutes at room temperature. To measure binding, 50 μl of binding buffer, with or without a known concentration of compound, is combined with 50 μl of ^125-I labeled human MIP-1α (to give a final concentration of 50 pM radioligand) and 50 μl of binding buffer containing 5×10^5 cells. Cells used for such binding assays can include the THP-1 cell line, which expresses the endogenous CCR1 receptor, or human peripheral blood mononuclear cells, isolated by Ficoll-Hypaque gradient centrifugation, or human monocytes (Weiner et al., J. Immunol. Methods, 36:89 (1980)). The mixture of compound, cells and radioligand is incubated at room temperature for thirty minutes. Plates are placed onto a vacuum manifold, vacuum applied, and the plates washed three times with binding buffer containing 0.5M NaCl. The plastic skirt is removed from the plate, the plate allowed to air dry, the wells punched out and counted. […]

In the case of `CCC(NC(=O)C1CCCC1)C(O)C1CCN(c2ccc(Cl)cc2)CC1` (single isomer, unassigned) [Example 1, N-(1-(1-(4-Chlorophenyl)piperidin-4-yl)-1-hydroxybutan-2-yl)cyclopentanecarboxamide], the Ki amounted to 930 nM.
Then `CCC(NC(=O)C1CCCC1)C(O)C1CCN(c2ccc(Cl)cc2)CC1` (single isomer, unassigned) [Example 2, N-(1-(1-(4-Chlorophenyl)piperidin-4-yl)-1-hydroxybutan-2-yl)cyclopentanecarboxamide], with 354 nM.
